Data set [1] is described as follows: Cytotoxicity against human CRL8155 cells. The format is cell-based.
Data set [2] in a line: physchem. The conditions noted are these: octanol/water.
Description: Lipophilicity, log P of the compound
Data set [3] relates to Trypanosoma cruzi. In words: microbe, parasite or virus in culture. To be noted: Tulahuen, NIH3T3, 168 h.
Description: Antitrypanosomal activity against Trypanosoma cruzi Tulahuen infected in 3T3 cells after 7 days by beta-galactosidase assay
The nature of data set [4]: Inhibition of recombinant Trypanosoma cruzi sterol 14-alpha-demethylase by spectrophotometry.

The record followed here is ChEMBL document CHEMBL2439965, “Dialkylimidazole inhibitors of Trypanosoma cruzi sterol 14α-demethylase as anti-Chagas disease agents” (Bioorg Med Chem Lett, 2013).

Where only a bound is given, the exact number is not on record here.

Broadly, the IC50 is the concentration that inhibits the measured activity by half. Low values mean greater potency, high ones weaker potency. As usually defined, the logP is the decadic logarithm of the partition coefficient of the neutral form, usually between octanol and water. A high value points to higher lipophilicity. The term EC50 denotes the concentration giving half of the maximal effect. In turn, `Oc1ccc(-c2cc(NCc3cncn3Cc3ccc(-c4ccccc4)cc3)ccc2-c2nc3ccccc3s2)cc1` came in with an IC50 in data set [1] of 20000 nM. This compound had a logP in data set [2] of 8.1. The same compound gave an EC50 in data set [3] of 11 nM.

Consider `c1ccc(-c2ccc(Cn3cncc3CNc3ccc(NCCN4CCCCC4)c(-c4ccccc4)c3)cc2)cc1`, for which the IC50 in data set [1] is 10700 nM. This compound yielded a logP in data set [2] of 6.6. In data set [3], it took 194 nM to reach a half-maximal effect (EC50).

As to `Cc1cc(NCc2cncn2Cc2ccc(-c3ccccc3)cc2N)ccc1Cl`, the IC50 in data set [1] was 12900 nM. The compound also returned a logP in data set [2] of 4.4. Moreover, in data set [3], the response was half-maximal at 0.6 nM (EC50).

Take `Fc1ccc(NCc2cncn2Cc2ccc(-c3ccccc3)cc2)cc1-c1c(F)cccc1F`: the IC50 in data set [1] amounted to 17500 nM. The logP in data set [2] is 6.6. The EC50 in data set [3] is 11.7 nM.

In data set [1], `CC1CCN(CCOc2ccc(NCc3cncn3Cc3ccc(-c4ccccc4)cc3)cc2-c2ccccc2)CC1` registered an IC50 of 4470 nM. Moreover, the logP in data set [2] came to 5.9. This compound had a 50% effective concentration (EC50) in data set [3] of 97.4 nM.

The compound `Nc1cc(-c2ccccc2)ccc1Cn1cncc1CNc1ccc(Cl)c(-n2ccnc2)c1` gave an IC50 in data set [1] of 14600 nM. In data set [2], this compound registered a logP of 3.5. Besides, in data set [3], the midpoint of the response, the EC50, lay at 5 nM.

Consider `Nc1cc(-c2ccccc2)ccc1Cn1cncc1CNc1ccc(F)c(-c2ccccc2)c1`, for which the IC50 in data set [1] was determined as 18800 nM. Moreover, the logP in data set [2] turned out to be 5.5. For the same compound, in data set [3], it took 0.8 nM to reach a half-maximal effect (EC50).

As a reminder, the Kd is a measure of binding affinity in units of concentration. Regarding `COc1ccc(NCc2cncn2Cc2ccc(-c3ccccc3)cc2N)nc1-c1ccccc1`, the IC50 in data set [1] was > 5000 nM. Also, in data set [4], the Kd was 490 nM. The logP in data set [2] was determined as 5. This compound also displayed an EC50 in data set [3] of 0.2 nM.

For `Nc1cc(-c2ccccc2)ccc1Cn1cncc1CNc1ccc(Cl)c(N2CCCCC2)c1`, the IC50 in data set [1] is > 5000 nM. In addition, the logP in data set [2] came to 5.3. For the same compound, the EC50 in data set [3] came to 1.1 nM.

Compound `Nc1ccc(-c2cc(NCc3cncn3Cc3ccc(-c4ccccc4)cc3N)ccc2Cl)cc1` came in with an IC50 in data set [1] of 12900 nM. The compound also displayed a lipophilicity (logP) in data set [2] of 5.1. Moreover, in data set [3], the midpoint of the response, the EC50, lay at 0.3 nM.

Consider `Cc1ccc(NCc2cncn2Cc2ccc(-c3ccccc3)cc2N)cc1-c1c(F)cccc1F`, for which the IC50 in data set [1] was > 5000 nM. In data set [2], this compound registered a log partition coefficient (logP) of 6.2. Besides, in data set [3], the midpoint of the response, the EC50, lay at 0.4 nM.

`CCN1CCC(Cn2cncc2CNc2ccc(Cl)c(-c3ccccc3)c2)CC1` gave an IC50 in data set [1] of 17400 nM. The logP in data set [2] was found to be 4.3. For the same compound, the EC50 in data set [3] is > 1000 nM.
